According to the Deep4Chem optical property database:
Blank lines part the entries; values can stand above or below the compound they belong to.

Assay: solvent given as SMILES

Compound: Cc1nc(-c2ccc(N3c4ccccc4C(c4ccccc4)(c4ccccc4)c4ccccc43)cc2)cc(-c2ccc(N3c4ccccc4C(c4ccccc4)(c4ccccc4)c4ccccc43)cc2)n1
emission maximum (in Cc1ccccc1): 453 nm | emission maximum (in O=P(c1ccccc1)(c1ccccc1)c1ccc2oc3ccc(P(=O)(c4ccccc4)c4ccccc4)cc3c2c1): 458 nm

emission maximum (in ClCCl): 484 nm
Compound: COc1ccc(-c2cnc3cccc(-c4ccccc4)n23)cc1

Compound: CN(C)/C=N\c1ccc2c3c(cccc13)C(=O)c1ccccc1-2
emission maximum (in C1CCOC1): 586 nm | emission maximum (in CCCCCC): 528 nm | emission maximum (in CCO): 634 nm | emission maximum (in CCOC(C)=O): 586 nm | emission maximum (in CN(C)C=O): 624 nm | emission maximum (in CO): 638 nm | emission maximum (in Cc1ccccc1): 551 nm | emission maximum (in ClC(Cl)(Cl)Cl): 540 nm | emission maximum (in ClC(Cl)Cl): 575 nm | emission maximum (in ClCCl): 593 nm | emission maximum (in c1ccccc1): 550 nm

emission maximum (in CCO): 648 nm | emission maximum (in CS(C)=O): 604 nm | emission maximum (in O): 636 nm
Compound: CC1(C)C(/C=C/c2cc3ccc(O)cc3oc2=O)=[N+](CCCS(=O)(=O)[O-])c2ccc(S(=O)(=O)O)cc21

emission maximum (in C1CCCCC1): 350.75 nm | emission maximum (in O): 351 nm
Compound: Oc1ccc2ccccc2c1

Compound: CCC1=C(C)C2=C(C)c3c(C)c(-c4csc(N5CCOCC5)n4)c(C)n3[B-](F)(F)[N+]2=C1C
emission maximum (in C1CCOC1): 618 nm | emission maximum (in C1COCCO1): 606 nm | emission maximum (in CC#N): 543 nm | emission maximum (in CC(C)O): 538 nm | emission maximum (in CCO): 539 nm | emission maximum (in CCOC(C)=O): 549 nm | emission maximum (in CN(C)C=O): 539 nm | emission maximum (in CO): 540 nm | emission maximum (in CS(C)=O): 539 nm | emission maximum (in Cc1ccccc1): 597 nm | emission maximum (in ClC(Cl)Cl): 603 nm | emission maximum (in ClCCl): 537 nm

emission maximum (in ClC(Cl)Cl): 560 nm
Compound: Cc1ccc(S(=O)(=O)/N=c2\oc3cccc4c5c(-c6ccccc6)oc6cccc(c(c2-c2ccccc2)c34)c65)cc1

emission maximum (in CCO): 506 nm
Compound: CC1(C)Nc2cc3nc4cc(Cl)c(Cl)cc4nc3cc2N1

emission maximum (in CC#N): 414 nm
Compound: c1ccc2c(c1)nc1ccccn12

emission maximum (in ClCCl): 421 nm
Compound: O=C1c2cccc3cc(C#CC#Cc4cc5c6c(cccc6c4)C(=O)N(c4ccccc4)C5=O)cc(c23)C(=O)N1c1ccccc1

Compound: CC(=O)c1c2c(cc3ccc(N(C)C)cc13)CCC2
emission maximum (in C1CCCCC1): 466 nm | emission maximum (in C1CCOC1): 497 nm | emission maximum (in C1COCCO1): 495 nm | emission maximum (in CC#N): 529 nm | emission maximum (in CCO): 578 nm | emission maximum (in CS(C)=O): 536 nm | emission maximum (in Cc1ccccc1): 490 nm | emission maximum (in ClC(Cl)Cl): 516 nm | emission maximum (in ClCCl): 510 nm

emission maximum (in ClCCl): 434 nm
Compound: CC(C)(C)c1cc(-c2ccc(-c3cccs3)s2)c2c(c1)c1cc(C(C)(C)C)cc(-c3ccc(-c4cccs4)s3)c1n2-c1ccc(-c2cccs2)s1

emission maximum (in ClCCl): 682 nm
Compound: CC(C)c1cccc(C(C)C)c1N1C(=O)c2ccc3c(-c4ccc(C(=O)O)cc4)c4c5ccc6c7c(ccc(c(-c8ccc(C(=O)O)cc8)c4c4ccc(c2c34)C1=O)c75)C(=O)N(c1c(C(C)C)cccc1C(C)C)C6=O

emission maximum (in C1CCCCC1): 411 nm | emission maximum (in CC#N): 412 nm
Compound: C[Si](C)(C)[Si](C)(C)c1ccc2cc3ccccc3cc2c1

emission maximum (in C1CCCCC1): 472 nm | emission maximum (in C1CCOC1): 519 nm | emission maximum (in CC#N): 536 nm | emission maximum (in CO): 522 nm | emission maximum (in CS(C)=O): 552 nm | emission maximum (in ClCCl): 535 nm | emission maximum (in O): 426 nm
Compound: CC1=N/C(=C\c2ccccc2N(C)C)C(=O)N1C

emission maximum (in ClC(Cl)Cl): 557 nm
Compound: CCCCCCN1C(=O)c2cccc3cc(/N=C\c4ccc(N5CCOCC5)cc4)cc(c23)C1=O

emission maximum (in CC#N): 462 nm | emission maximum (in ClCCl): 434 nm
Compound: Cc1cc(-c2ccccc2)cc(C)[o+]1

Compound: Cc1cc(C)c2c(c1)c1cc(C)cc(C)c1n2-c1ccc2c(c1)Oc1ccccc1B2c1c(C(C)C)cc(C(C)C)cc1C(C)C
emission maximum (in Cc1ccccc1): 443 nm

emission maximum (in ClC(Cl)Cl): 411 nm
Compound: CCCCn1c2ccc(-c3cccc(F)c3)cc2c2ccc3c4cc(-c5cccc(F)c5)ccc4n(CCCC)c3c21

Compound: CC(C)(C(=O)c1ccc(N2c3ccccc3C(C)(C)c3ccccc32)cc1)C(=O)c1ccc(N2c3ccccc3C(C)(C)c3ccccc32)cc1
emission maximum (in Cc1ccccc1): 506 nm | emission maximum (in c1ccc2c(c1)c1ccccc1n2-c1ccc(-c2ccc(-n3c4ccccc4c4ccccc43)cc2)cc1): 495.97 nm

emission maximum (in ClCCl): 427 nm
Compound: O=Cc1ccc(C2=Cc3ccccc3P2(=O)c2ccccc2)cc1 (stereo unspecified)

emission maximum (in CC#N): 501 nm
Compound: N#C/C(=C\c1ccc(Cl)cc1)c1nc(-c2ccccc2)c(-c2ccccc2)s1

emission maximum (in ClCCl): 733 nm
Compound: CCOC(=O)COc1ccc(/C=C/C2=C3C(C)=CC(/C=C/c4ccc(OCC(=O)OCC)cc4)=[N+]3[B-](F)(F)n3c2c2ccccc2c3-c2[nH]c(C)cc2C)cc1

Compound: Oc1ccc(/N=C/c2ccccc2Oc2ccccc2)cc1
emission maximum (in C1CCCCC1): 410 nm | emission maximum (in C1COCCO1): 414 nm | emission maximum (in CC#N): 424 nm | emission maximum (in CC(C)=O): 423 nm | emission maximum (in CC(C)CO): 410 nm | emission maximum (in CCCCC): 410 nm | emission maximum (in CCCCCC): 428 nm | emission maximum (in CCCCCCCCO): 420 nm | emission maximum (in CCCCCCCO): 413 nm | emission maximum (in CCCCCCO): 413 nm | emission maximum (in CCCCO): 419 nm | emission maximum (in CCCCOC(C)=O): 410 nm | emission maximum (in CCCO): 415 nm | emission maximum (in CCO): 415 nm | emission maximum (in CCOC(C)=O): 412 nm | emission maximum (in CCOCC): 427 nm | emission maximum (in CN(C)C=O): 423 nm | emission maximum (in CO): 415 nm | emission maximum (in CS(C)=O): 418 nm | emission maximum (in Cc1ccccc1): 410 nm | emission maximum (in Cc1ccccc1C): 414 nm | emission maximum (in ClC(Cl)Cl): 415 nm | emission maximum (in ClCCl): 414 nm | emission maximum (in OCCO): 405 nm | emission maximum (in c1ccccc1): 414 nm

emission maximum (in C1CCOC1): 486 nm | emission maximum (in CC#N): 514 nm | emission maximum (in CCCCCCC): 435 nm | emission maximum (in CS(C)=O): 521 nm | emission maximum (in ClCCl): 498 nm
Compound: C(=C\c1ccncn1)/c1ccc(N2CCCCC2)cc1

Compound: Cc1ccc(C(=O)NN2C3=C(CC4=C2CCCC4=O)C(=O)CCC3)cc1
emission maximum (in C1CCOC1): 435 nm | emission maximum (in CC#N): 343 nm | emission maximum (in CC(C)=O): 368 nm | emission maximum (in CCCCCO): 445 nm | emission maximum (in CO): 447 nm | emission maximum (in ClC(Cl)Cl): 438 nm | emission maximum (in ClCCl): 435 nm

Compound: CC1=[O+][B-]2(OC(=O)C(=O)O2)OC(c2c3ccccc3cc3ccccc23)=C1
emission maximum (in CC#N): 527 nm | emission maximum (in ClC(Cl)(Cl)Cl): 514 nm

emission maximum (in ClCCl): 420 nm
Compound: c1ccc2c(-c3c4ccccc4c(-c4ccc(-c5ccc(-n6c7ccccc7c7ccccc76)cc5)cc4)c4ccccc34)cccc2c1

emission maximum (in ClCCl): 421 nm
Compound: Oc1ccc(Br)cc1-c1nc2c(c3c1-c1ccccc1CC3)-c1ccccc1CC2

Compound: CN(C)c1ccc(C#Cc2ccc(C#N)cc2)cc1
emission maximum (in C1CCCCC1): 383 nm | emission maximum (in C1CCOC1): 505 nm | emission maximum (in C1COCCO1): 446.01 nm | emission maximum (in CC1CCCO1): 468.01 nm | emission maximum (in CC#N): 571 nm | emission maximum (in CC(C)=O): 543.01 nm | emission maximum (in CC(C)CC(C)(C)C): 380 nm | emission maximum (in CC(C)O): 510 nm | emission maximum (in CCCCCCCCCCCCCCCC): 385 nm | emission maximum (in CCCCCCCCCCCCCCCCCl): 423.6 nm | emission maximum (in CCOC(C)=O): 482 nm | emission maximum (in CCOCC): 453 nm | emission maximum (in CN(C)C=O): 566 nm | emission maximum (in CO): 547.02 nm | emission maximum (in CS(C)=O): 573 nm | emission maximum (in Cc1ccccc1): 427 nm

emission maximum (in ClCCl): 532 nm
Compound: CCCCCCCCCCCCN1C(=O)c2c(c3ccc4cc(-c5ccc(OC)cc5)c(OC)cc4c3c3c2ccc2cc(-c4ccc(OC)cc4)c(OC)cc23)C1=O

emission maximum (in CC1CCCO1): 490 nm
Compound: CCCCCCOc1ccc2ccc3oc(=O)cc4cc(OCCCCCC)c1c2c43

emission maximum (in ClCCl): 489 nm
Compound: CCCCOc1c(Br)cc2cc(Br)c(OCCCC)c3c4c(OCCCC)c(Br)cc5cc(Br)c(OCCCC)c(c1c23)c54

emission maximum (in C1CCCCC1): 345 nm
Compound: CCCC1(CCC)c2ccccc2-c2ccc(-c3ccc(OC)cc3)cc21

emission maximum (in ClCCl): 645 nm
Compound: C1=C2C3=C(C4=[N+]2[B-]2(Oc5ccccc54)Oc4ccccc4-c4c5c(c1n42)C1CCC5CC1)C1CCC3CC1 (stereo unspecified)

emission maximum (in C1COCCO1): 376 nm | emission maximum (in CC#N): 382 nm | emission maximum (in CO): 405 nm | emission maximum (in ClCCl): 371 nm
Compound: COC(=O)c1nc2c(OCc3ccccc3)nc(N)nc2n1Cc1ccccc1

Compound: N#Cc1nc(-n2c3ccccc3c3ccccc32)cc(-n2c3ccccc3c3ccccc32)n1
emission maximum (in Cc1ccccc1): 518 nm

emission maximum (in ClC(Cl)Cl): 461 nm
Compound: c1ccc(-c2ncc3ccccn23)cc1

emission maximum (in ClCCl): 428 nm
Compound: Cc1cccc(-c2c3ccccc3c(-c3cccc(C)n3)c3ccccc23)n1

emission maximum (in C1CCCCC1): 509 nm | emission maximum (in C1CCOC1): 553 nm | emission maximum (in CC#N): 565 nm | emission maximum (in ClC(Cl)Cl): 536 nm | emission maximum (in c1ccccc1): 539 nm
Compound: Cc1cc(C)c(B(c2c(C)cc(C)cc2C)c2cc3cc(N(C)C)c4ccccc4c3c3c2ccc2ccccc23)c(C)c1

emission maximum (in C1CCOC1): 413 nm
Compound: c1ccc2c(c1)c1ccccc1n2-c1ccc(-c2ccn3nc(-c4ccc(-n5c6ccccc6c6ccccc65)cc4)nc3c2)cc1

Compound: Nc1nc(/C=C/c2ccc(N(c3ccccc3)c3ccccc3)cc2)cc(/C=C/c2ccc(N(c3ccccc3)c3ccccc3)cc2)n1
emission maximum (in Cc1ccccc1): 467 nm | emission maximum (in ClC(Cl)Cl): 526 nm

emission maximum (in CCCCCC): 587 nm
Compound: Cc1cc(C)n2c1C=C1C(=O)N(C)C(c3ccc([N+](=O)[O-])cc3)=[N+]1[B-]2(F)F

emission maximum (in C1CCCCC1): 401.88 nm | emission maximum (in CC#N): 504.43 nm | emission maximum (in ClCCl): 444.61 nm
Compound: O=S1c2ccccc2-c2cc(-c3c4ccccc4cc4ccccc34)ccc21 (stereo unspecified)

emission maximum (in CC#N): 497.02 nm | emission maximum (in CCO): 472.33 nm | emission maximum (in ClCCl): 457 nm
Compound: CN(C)c1ccc(C#Cc2ccc(-c3cc(N(C)C)c4ccccc4c3)cc2)cc1

emission maximum (in ClCCl): 528 nm
Compound: CCCCCCc1cc2c3c(c1)c(=C1c4ccccc4S(=O)(=O)c4ccccc41)c1cc(CCCCCC)cc4c1N3c1c(cc(CCCCCC)cc1c4=C1c3ccccc3S(=O)(=O)c3ccccc31)c2=C1c2ccccc2S(=O)(=O)c2ccccc21

emission maximum (in ClCCl): 489 nm
Compound: c1ccc(N(c2ccccc2)c2ccc(-c3ccc(-c4cc(-c5ccccn5)nc(-c5ccccn5)c4)cc3)cc2)cc1
